Test results taken from ChEMBL document CHEMBL1129892, “Tetracyclic analogues of [+]-S 14297: Synthesis and determination of affinity and selectivity at cloned human dopamine D3 vs D2 receptors” (Bioorg Med Chem Lett, 1997).

What was measured:
D(3) dopamine receptor = D(3) dopamine receptor (Homo sapiens, UniProt P35462); assay: biochemical
Description: Inhibition of [125 I]iodosulpiride binding to human Dopamine receptor D3 expressed in CHO cell membranes

D(2) dopamine receptor = D(2) dopamine receptor (Homo sapiens, UniProt P14416); format: cell membranes, CHO
Chain of D(2) dopamine receptor (P14416 whole entry): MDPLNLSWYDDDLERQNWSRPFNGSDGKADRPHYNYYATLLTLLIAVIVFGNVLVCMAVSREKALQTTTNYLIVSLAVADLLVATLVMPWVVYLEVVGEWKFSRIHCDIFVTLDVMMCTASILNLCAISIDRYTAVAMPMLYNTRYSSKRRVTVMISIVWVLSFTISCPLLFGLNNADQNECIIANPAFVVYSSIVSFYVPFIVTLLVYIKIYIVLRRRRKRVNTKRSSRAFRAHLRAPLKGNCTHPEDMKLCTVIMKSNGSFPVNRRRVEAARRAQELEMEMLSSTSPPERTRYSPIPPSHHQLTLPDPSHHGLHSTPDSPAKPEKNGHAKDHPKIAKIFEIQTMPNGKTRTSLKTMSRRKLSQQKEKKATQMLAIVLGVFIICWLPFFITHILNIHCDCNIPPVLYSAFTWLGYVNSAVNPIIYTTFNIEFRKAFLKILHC

Chain of D(3) dopamine receptor (P35462 whole entry): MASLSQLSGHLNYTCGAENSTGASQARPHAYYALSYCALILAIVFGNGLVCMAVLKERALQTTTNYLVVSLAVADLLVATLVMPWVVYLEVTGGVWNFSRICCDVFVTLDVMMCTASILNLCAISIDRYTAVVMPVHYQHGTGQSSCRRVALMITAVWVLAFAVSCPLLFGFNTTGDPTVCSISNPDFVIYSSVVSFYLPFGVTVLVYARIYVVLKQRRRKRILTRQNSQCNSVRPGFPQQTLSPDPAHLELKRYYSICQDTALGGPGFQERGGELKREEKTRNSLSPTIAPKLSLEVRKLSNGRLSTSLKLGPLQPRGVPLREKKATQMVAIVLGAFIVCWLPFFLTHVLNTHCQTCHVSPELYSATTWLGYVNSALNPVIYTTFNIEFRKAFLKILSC

Row | Compound | Ki (D(3) dopamine receptor) [nM] | Ki (D(2) dopamine receptor) [nM]
1 | CCCN(CCC)C1CCc2cc3c(cc2C1)OCC3 (stereo not given) | 12.6 | 251
2 | CC(C)CN1CCO[C@@H]2c3cc4c(cc3CC[C@H]21)CCO4 | 126 | 5010
3 | CCCN1CCO[C@@H]2c3cc4c(cc3CC[C@H]21)CCO4 |  | 398
4 | CCCN1CCO[C@@H]2c3cc4c(cc3OC[C@H]21)CCO4 |  | 12600
5 | CCCN1CCC[C@@H]2c3cc4c(cc3CC[C@H]21)CCO4 | 25.1 | 501
6 | c1c2c(cc3c1CC[C@@H]1[C@@H]3OCCN1CC1CC1)OCC2 | 63.1 | 2510
7 | c1c2c(cc3c1CC[C@H]1NCCO[C@H]31)OCC2 | 200 | 1000
8 | CN1CCO[C@@H]2c3cc4c(cc3CC[C@H]21)CCO4 | 79.4 | 398
9 | CCCN1CCO[C@H]2c3cc4c(cc3CC[C@H]21)CCO4 |  | > 10000
10 | CCCN1CCO[C@H]2c3cc4c(cc3OC[C@H]21)CCO4 |  | > 100000
11 | c1ccc(CN2CCO[C@@H]3c4cc5c(cc4CC[C@H]32)CCO5)cc1 | > 10000 | > 10000
12 | c1ccc(CCN2CCO[C@@H]3c4cc5c(cc4CC[C@H]32)CCO5)cc1 | > 10000 | > 10000
